Where two headings read alike, the source gives them in different places.
Experiments:
[1] = system: PQ-treated Neuro-2a cells; test: PQ-induced neurotoxicity, cell viability (MTT); format: cell-based, murine; details: PQ 1 mM; for Effect on percentage of living cells after treatment with PQ: compounds 0.01–10 μM, 1 h pre-treatment, MTT after 24 h
Protocol: (§1) After 24 h of adhesion, Neuro-2a cells (1 × 10^4 cells/well) were treated with polyphenolic compounds at concentrations of 0.01–10 μM for 1 h. Subsequently, 1 mM of PQ, 10 μM rotenone or 80 μM of 6-OHDA (Sigma-Aldrich, St. Louis, MO, USA) were added. We used MTT assay to determine the percentage of living cells (cell viability) after 24 h of incubation. Cells incubated without inductors or with inductors were used as positive and negative control, respectively. The results are presented as percentages of the positive control value.

[2] = design: method as in PMID 31004693; details: 30 min; mean ± SEM, n = 3; previously published; read-out: DPPH-Scavenging Effect SC50; cited from earlier work
[3] = system: PQ-treated Neuro-2a cells; test: ROS level in PQ-treated cells (H2DCF-DA); format: cell-based, murine; details: PQ 1 mM, 3 h
Protocol: (§2) After 24 h of adhesion, Neuro-2a cells (1 × 10^4 cells/well) were incubated with compounds (0.01–10 µM) for 1 h. Then, we added rotenone (10 μM), 6-OHDA (80 μM), or PQ (1 mM) to each well and incubated cells for 1 h, 1 h, or 3 h, respectively. To evaluate the level of intracellular ROS, we added 20 µL of 2,7-dichlorodihydrofluorescein diacetate solution ([…], H2DCF-DA, Molecular Probes, Eugene, OR, USA) to each well, so that the final concentration was 10 µM, and incubated the microplate at 37 °C for an additional 30 min. Quercetin was used as a reference compound.

Cytotoxicity, MTT assay = format: cell-based, murine; details: mouse, Neuro-2a neuroblastoma cells, read-out: Cytotoxic activity EC50
Protocol: The murine neuroblastoma cell line Neuro-2a (CCL-131) was purchased from American Type Culture Collection (ATCC®) (Manassas, VA, USA). Cells were cultured in Dulbecco’s Modified Eagle Medium (Biolot, St. Petersburg, Russia). The medium contained 10% fetal bovine serum (Biolot, St. Petersburg, Russia) and 1% penicillin/streptomycin (Biolot, St. Petersburg, Russia). Cells were incubated at 37 °C in a humidified atmosphere containing 5% (v/v) CO2.
Stock solutions of polyphenolic compounds were prepared in DMSO at a concentration of 10 mM. […]
We incubated Neuro-2a cells (1 × 10^4 cells/well) at 37 °C in a CO2 incubator for 24 h until they formed an adherent monolayer. Then, 20 μL of the tested solution was loaded onto the cells and incubated for 24 h. After incubation, the medium containing the polyphenolic test compounds was replaced by 100 μL of fresh medium. Then, we added 10 μL of MTT (3-(4,5-dimethylthiazol-2-yl)-2,5-diphenyltetrazolium bromide) (Sigma-Aldrich, St. Louis, MO, USA) stock solution (5 mg/mL) to each well and incubated the microplate for 4 h. Then, 100 μL of SDS-HCl solution (1 g SDS/10 mL dH2O/17 μL 6 M HCl) was added to each well, followed by incubation for 18 h. We measured the absorbance of the converted dye formazan on a Multiskan FC microplate photometer (Thermo Scientific, Waltham, MA, USA) at a wavelength of 570 nm. We performed all experiments in triplicate and expressed the cytotoxic activity as percent of living cells.

[4] = design: method as in PMID 31004693; details: mean ± SEM, n = 3; previously published; cited from earlier work
[5] = system: 6-OHDA-treated Neuro-2a cells; test: 6-OHDA-induced neurotoxicity, cell viability (MTT); format: cell-based, murine; details: 6-OHDA 80 µM, p < 0.05
Protocol: as §1

[6] = DPPH radical-scavenging effect; details: 30 min; DPPH• 10^−4 M in MeOH; mean ± SEM, n = 3; read-out: DPPH-Scavenging Effect SC50
Protocol: The 2,2-diphenyl-1-picrylhydrazyl (DPPH^•) radical-scavenging effect of polyphenolic compounds 7–11 was determined as described in [24]. Polyphenolic compounds 7, 8, 9, 10, and 11 were added to DPPH^• solution in MeOH (10^−4 M) at concentrations from 6 to 34 µM. The reacting mixture was kept in the dark for 30 min at room temperature. Then, we measured the absorbance at 517 nm using a Shimadzu UV 1240 spectrophotometer (Shimadzu, Kyoto, Japan). Equation (1) was used to calculate the DPPH^• radical-scavenging effect (%):(1) DPPH^• scavenging effect,%=A0−Ax/A0 where A0 is the absorbance of DPPH^• solution of a blank sample (without polyphenolic compounds); AX is the absorbance of DPPH^• solution in the presence of different concentrations of polyphenolic compounds.
Quercetin was used as a reference compound. All experiments were performed in triplicate. We calculated the half-maximal scavenging concentration (SC50) for polyphenolic compounds by plotting the DPPH^• scavenging effect (%) against the concentrations of polyphenolic compounds. SC50 values are given as the mean value ± SEM.

[7] = system: rotenone-treated Neuro-2a cells; test: ROS level in rotenone-treated cells (H2DCF-DA); format: cell-based, murine; details: rotenone 10 µM, 1 h
Protocol: as §2

[8] = Ferric reducing antioxidant power (FRAP) assay; details: 4 min, absorbance 595 nm; mean ± SEM, n = 3
Protocol: We performed the FRAP assay as described in [29]. We prepared the FRAP reagent by mixing 2.5 mL of TPTZ (2,4,6-tris(2-pyridyl)-s-triazine) solution (10 mM) in 40 mM HCl and 25 mL of FeCl3 solution (20 mM) in acetate buffer solution (300 mM, pH 3.6). Polyphenolics 7–11 were added to 3 mL of FRAP reagent at concentrations from 6 to 34 µM. The mixture was kept in the dark at room temperature for 4 min. Then, we measured the absorbance at 595 nm using a Shimadzu UV 1240 spectrophotometer. Equation (2) was used to calculate the FRAP values for polyphenolic compounds 7–11:(2) FRAP=CFe/Cx where CFe is the concentration of Fe^2+ (µM) formed in the reaction; CX is the concentration of polyphenolic compounds in the reacting mixture.
The concentration of Fe^2+ (µM) formed in the reaction was determined using the calibration curve obtained for different concentrations of FeSO4·7H2O.

[9] = system: 6-OHDA-treated Neuro-2a cells; test: ROS level in 6-OHDA-treated cells (H2DCF-DA); format: cell-based, murine; details: 6-OHDA 80 µM, 1 h; H2DCF-DA
Protocol: as §2

[10] = system: rotenone-treated Neuro-2a cells; test: Rotenone-induced neurotoxicity, cell viability (MTT); format: cell-based, murine; details: for Increase in percentage of living cells after treatment with rotenone compared to rotenone-treated cells: rotenone 10 µM, MTT, p < 0.05
Protocol: as §1

[11] = system: human embryonic kidney cells HEK-293; design: method as in PMID 32087226; details: HEK-293 normal cell line; cited from earlier work
[12] = system: retina pigmented epithelium cells RPE-1; design: method as in PMID 32087226; details: RPE-1 normal cell line; cited from earlier work
[13] = system: human triple-negative breast cancer HTB-19; design: method as in PMID 32087226; details: cited from earlier work
[14] = system: esophageal squamous cell carcinoma Kyse-30; design: method as in PMID 32087226; details: cited from earlier work
[15] = system: hepatocellular carcinoma HEPG-2; design: method as in PMID 32087226; details: cited from earlier work
TNF-α, IL-1, and IL-6 = system: TNF-α, IL-1, and IL-6; design: method as in PMID 21708076; details: cited from earlier work
rats = system: rats; design: method as in PMID 31693927, doi:10.1016/j.jff.2017.05.002; details: cited from earlier work
[16] = system: cerebral global-ischemia model; details: cited from earlier work
[17] = system: LPS- and Aβ-induced neurotoxicity; design: method as in PMID 21708076; details: cited from earlier work
MAO-A = system: MAO-A; design: method as in PMID 27575476, PMID 32087226; details: cited from earlier work
5-lipoxygenase = system: 5-lipoxygenase; design: method as in PMID 28506902; details: cited from earlier work
6-OHDA-exposed worms = system: 6-OHDA-exposed worms; design: method as in PMID 32585871; details: cited from earlier work
RAW 264.7 macrophages = system: RAW 264.7 macrophages; design: method as in PMID 25592708; details: cited from earlier work
α-synuclein = system: α-synuclein; design: method as in PMID 32585871; details: cited from earlier work
MAO-B = system: MAO-B; design: method as in PMID 27575476, PMID 32087226; details: cited from earlier work

Structure (SMILES): CC(C)=CCC/C(C)=C/Cc1c(O)c(O)cc2c1O[C@H]1c3cc(CC=C(C)C)c(O)cc3OC[C@@H]21 [Compound 6, (6aR,11aR)-2-isoprenyl-6a,11a-dihydrolespedezol A2]
- Effect on percentage of living cells after treatment with PQ [1]: significantly increased
- Concentration range in which the neuroprotective effect was detected ([1]; MTT): 0.01 to 1 µM
- Increase in percentage of living cells after treatment with PQ ([1]; compound 1 μM, MTT): 17%
- EC50 [2]: 21.8 ± 2 µM
- Effect on ROS level in PQ-treated cells [3]: slightly decreased
- EC50 at 24 h (Cytotoxicity, MTT assay): 40.6 µM
- FRAP [4]: 1.43 ± 0.06 mol (Fe^2+)/mol (polyphenolic compound X)

Structure (SMILES): CC(C)=CCC[C@@]1(C)C=Cc2c(c(O)cc3c2oc2c4ccc(O)cc4oc(=O)c32)O1 [Compound 10, lespebicoumestan A]
- Increase in percentage of living cells after 6-OHDA treatment versus 6-OHDA-treated cells [5]: 10.9%
- EC50 [6]: 22.7 ± 3.5 µM
- Effect on ROS levels in rotenone-treated cells [7]: did not significantly decrease
- FRAP [8]: 1.75 ± 0.20 mol (Fe^2+)/mol (polyphenolic compound X)
- Effect on ROS levels in 6-OHDA-treated cells [9]: significantly decreased
- EC50 at 24 h (Cytotoxicity, MTT assay): 44 µM
- Increase in percentage of living cells after treatment with rotenone compared to rotenone-treated cells [10]: 13.2%

Structure (SMILES): CC(C)=CCC[C@@]1(C)C=Cc2c(c(O)cc3c4c(oc23)-c2ccc(O)cc2OC4)O1 [Compound 9, lespedezol A3]
- Increase in percentage of living cells after 6-OHDA treatment versus 6-OHDA-treated cells [5]: 31.4%
- EC50 [6]: 13.5 ± 1.2 µM
- Effect on ROS levels in rotenone-treated cells [7]: did not significantly decrease
- Effect on ROS levels in 6-OHDA-treated cells [9]: significantly decreased
- EC50 at 24 h (Cytotoxicity, MTT assay): 75 µM
- Increase in percentage of living cells after treatment with rotenone compared to rotenone-treated cells [10]: 10.4%

Structure (SMILES): CC(C)=CCC/C(C)=C/Cc1c(O)c(O)cc2c3c(oc12)-c1ccc(O)cc1OC3 [Compound 4, lespedezol A2]
- Cytotoxicity [11]: rather cytotoxic
- Increase in percentage of living cells after 6-OHDA treatment versus 6-OHDA-treated cells [5]: 7.0%
- Cytotoxicity [12]: rather cytotoxic
- Cytotoxicity [13]: rather cytotoxic
- Effect on ROS levels in 6-OHDA-treated cells [9]: significantly decreased
- Cytotoxicity [14]: rather cytotoxic
- Effect on percentage of living cells after treatment with PQ [1]: did not exhibit any effect
- EC50 [2]: 18 ± 0.2 µM
- EC50 at 24 h (Cytotoxicity, MTT assay): 76 µM
- FRAP [4]: 2.78 ± 0.18 mol (Fe^2+)/mol (polyphenolic compound X)
- Cytotoxicity [15]: rather cytotoxic

Structure (SMILES): O=c1oc2cc(O)ccc2c2oc3cc(O)ccc3c12 [Coumestrol]
- Production of inflammatory cytokines TNF-α, IL-1, and IL-6 (TNF-α, IL-1, and IL-6): inhibited
- Mitochondrial activity (rats): modulated
- Oxidative stress (rats): decreased
- Neuroprotection in a cerebral global-ischemia model [16]: effective neuroprotection
- Neurotoxicity induced by LPS and amyloid-beta peptide (Aβ) [17]: attenuated

Structure (SMILES): C=C(C)[C@H]1Cc2c(ccc3c2O[C@@H]2COc4cc(OC)c(OC)cc4[C@@H]2C3=O)O1 [rotenone, reference compound]
- Percentage of living Neuro-2a cells compared to the control ([10]; rotenone 10 µM alone): 68%

Structure (SMILES): Oc1ccc2c(c1)OC[C@H]1c3cc4c(cc3O[C@@H]21)OCO4 [maackiain]
- Inhibition of MAO-A (MAO-A): did not effectively inhibit
- Inhibition of 5-lipoxygenase (5-lipoxygenase): inhibited
- Dopaminergic neuron damage (6-OHDA-exposed worms): significantly reduce
- LPS-induced nitric oxide production (RAW 264.7 macrophages): inhibitory effects
- Accumulation of α-synuclein (α-synuclein): diminish
- Inhibition of MAO-B (MAO-B): selectively inhibited

Source: publication PMC9025851, “Polyphenolic Compounds from Lespedeza bicolor Protect Neuronal Cells from Oxidative Stress” (Antioxidants, 2022)
